Data from patent US20140315834A1 (Medicon Pharmaceuticals, Inc., priority 2012, published 2014).
pIC50: −log10 of the molar value. Like-named read-outs stand apart in the source and are kept apart here.

Assays:
U87 glioblastoma cells = assay: Apoptosis by Annexin V-FITC / propidium iodide staining; format: cell-based; conditions: 24 hours; PGIA 4 200 μM, PV 116 40 μM, alone or combined
Protocol: The potential synergy between PV and PGIA in inhibiting the growth of U87 glioblastoma cells was assessed by isobolographic analysis. After treatment with PV 116 or PGIA 4 alone or in combination for 24 hours, the following as determined: a) cell growth using the MTT assay (Promega, Madison, Wis.) and b) apoptosis by staining with Annexin V-FITC (Invitrogen) and propidium iodide 0.5 μg/ml and analyzing the fluorescence intensity by FACS caliber.

A549 = format: in vivo, mice; conditions: Lung A549 ot, ip
AGS = format: in vivo, mice; conditions: Gastric AGS sc, ip
MDA = MDA breast sc xenograft; conditions: 120 mg/kg/d × 22 d, ip
HT-29 = HT-29 colon sc xenograft; conditions: Colon HT-29 sc; 120 mg/kg/d × 12 d, ip
BT-20 = BT-20 breast sc xenograft; conditions: Breast BT-20 sc; 120 mg/kg/d × 28 d, ip
A431 = format: in vivo, mice; conditions: Skin A431 id; Topical, 2 week
[1] = format: in vivo, Lewis rats
in vivo = conditions: mouse
[2] = system: A549 human lung cancer cells; assay: Aerosol PS in orthotopic GFP-A549 lung cancer model; format: in vivo, mice; conditions: aerosol 50 mg/mL PS for 8 minutes, treatment group
Protocol: PS dissolved in ethanol was placed in the baffle and aerosolized with the ultrasonic atomizer. […] The air flow in the system used to deliver by inhalation the test drug to mice was controlled by an inlet air regulator and a vacuum pump which draws air from the system.
Mice received 50 mg/mL PS for 8 minutes. After one week of treatment, 1 million A549 human lung cancer cells stably expressing green fluorescence protein (GFP-A549) were injected into the left lung through a 5 mm incision) was made to the left side of the chest. GFP allows the detection and quantification of these cells. […] Inhalation treatment, suspended for 2 days post-surgery, continued for 6 weeks.

[3] = Drug levels after inhalation vs oral administration of PS; format: in vivo, mice
[4] = Pharmacokinetics of phospho-sulindac in wild type and Ces1c knockout mice; format: in vivo; conditions: intraperitoneal and intravenous administration
Description: This is reflected in the enhanced distribution of intact phospho-sulindac in various tissues.

[5] = system: lung and pancreatic carcinoma (Lewis lung carcinoma); assay: Efficacy in Ces1c knockout vs wild type mice; format: in vivo
[6] = Hydrolysis of PS in PLLA(10K)-PEG(2K) nanocarrier, control pharmacokinetic experiments; format: in vivo
Protocol: Protection of phospho-NSAIDs from hydrolysis by encapsulation in nanocarriers enhances their anti-cancer efficacy. For example, PS was formulated in a nanocarrier suitable for iv administration [PLLA(10K)-PEG(2K)]. […] Nude mice bearing subcutaneous A549 human lung cancer xenografts were then given intravenously PS 60 mg/kg/d ×2d/week and the equimolar dose of sulindac (40 mg/kg.) Sulindac was ineffective in inhibiting the growth of the xenografts whereas PS was (32% vs. 75%; p<0.012). […] In other words, the anticancer efficacy of PS is not the result of its being metabolized to sulindac (Xie G, et al., Brit J. Pharmacol. 2012; 165:2152-66; Wong et al., J Pharmacol Exp Ther. 2012; 340:422-32).

[7] = system: A549 human lung cancer xenografts; assay: A549 sc xenografts, i.v. PS in nanocarrier vs sulindac; format: in vivo, mice; conditions: PS in nanocarrier, intravenously 60 mg/kg/d ×2d/week
[8] = Ferric chloride-induced carotid artery thrombus; format: in vivo, mice; conditions: oral, 40% of MTD, injury one hour later; FIG. 32B
Protocol: In this model the carotid artery is briefly exposed to FeCl3 leading to thrombus formation at the site of the injury and occlusion of blood flow. […] Flow rate was then measured for 30 minutes (FIG. 32).

platelets = assay: Ex vivo platelet aggregometry, collagen agonist; format: in vivo, mice; conditions: 40% MTD; collagen 1 μg/mL
Protocol: Platelet aggregation was studied using an Aggregometer (Chrono-Log, Havertown, Pa.). […] Maximum inhibition of aggregation occurred at 1 hour post treatment (FIG. 34).

[9] = system: AGS human gastric xenografts; conditions: nude mice; alone or with esterase inhibitor; cited from earlier work
[10] = system: U87 glioblastoma cell line; assay: 24-hour growth inhibition of glioblastoma cells; format: cell-based; conditions: 24 h, read-out: 24-h 1c50
U87 = U87 glioma sc xenograft; conditions: 20 mg/kg/d alone × 12 d, ip
HCT116 = HCT116 colon xenograft; conditions: Colon HCT116 sc; 100 mg/kg/d × 12 d, ip
MCF7 = MCF7 breast sc xenograft
[11] = Ulcerative colitis (IBD), DSS; conditions: 300 mg/kg/d × 10 d, po

Which results are given for `CCCC(CCC)C(=O)Oc1ccc(COP(=O)(OCC)OCC)cc1` [Compound 116, Phosphovalproic Acid]?
fold-increase of annexinV (+) cells (U87 glioblastoma cells): 3.0 fold; Reduction (A549; 100 mg/kg/d × 6 week): 80%; Reduction (AGS; 100 mg/kg/d × 3 week): 81%; Reduction (MDA): 63%; Reduction (HT-29): 40%; Reduction (BT-20): 37%

For `CCOP(=O)(OCC)OCCCCNC(=O)C(C)c1ccc(CC(C)C)cc1` (stereo not shown) [Compound 1, Phosphoric acid diethyl ester 4-[2-(4-isobutyl-phenyl)-propionylamino]-butyl ester], which Reduction (A549; 160 mg/kg/d × 6 week) is on record?
The Reduction was 75%.

And the Reduction (A431)?
The Reduction was 46%.

What about the Reduction (AGS; 160 mg/kg/d × 3 week) of the same molecule?
The Reduction was 34%.

And the “Latency, sec Mean ± SEM” value ([1]; Dose 120 mg/kg ip, 30 minutes prior to testing)?
Its value is 23.42 ± 1.16 s.

What about the MTD at 6 week (in vivo; nude, ip) of the same molecule?
Its MTD at 6 week is 160 mg/kg/day.

With `CCOP(=O)(OCC)OCCCCOC(=O)CC1=C(C)/C(=C/c2ccc([S+](C)[O-])cc2)c2ccc(F)cc21` (stereo not shown) [Compound 96, Phospho-Sulindac] as the molecule, how does the “death rate by the end of the study” value [2] read?
Its value is “less than 10%”.

What about the “PS levels in plasma” value ([3]; after inhalation or oral gavage) of the same molecule?
The value was “Undetectable”.

What about the “level of intact PS in the lungs” value ([3]; inhalational 6.5 mg/kg body weight) of the same molecule?
Its value is greater than 20 nmol/g.

What about the “total drug levels (PS plus metabolites) in lungs, inhalation compared to oral” value ([3]; inhalational 6.5 mg/kg vs oral 150 mg/kg) of the same molecule?
Its value is “significantly higher”.

What about the “level of intact PS in the lungs” value ([3]; oral 150 mg/kg body weight) of the same molecule?
The value was less than 2 nmol/g.

And the “less inactivation in Ces1c knockout mice vs wild type” value [4]?
Its value is “approximately 2 fold”.

And the “efficacy against Lewis lung carcinoma (LLC) in Ces −/− mice” value ([5]; 150 mg/kg, i.p., subcutaneous LLC tumors, FIG. 35)?
Its value is “more efficacious”.

And the “more effective in inhibiting growth of lung and pancreatic carcinoma in Ces1c knockout vs wild type mice” value ([5]; mouse, in vivo)?
Its value is “approximately 2 fold”.

And the “PS in nanocarrier hydrolyzed to sulindac” value [6]?
The value was less than 6%.

What about the “inhibition of growth of xenografts” value [7] of the same molecule?
The value was 75%.

And the “carotid artery blood flow following injury with FeCl3” value [8]?
The value was “flow rate is maintained”.

And the “time of maximum inhibition of aggregation post treatment” value (platelets)?
Its value is 1 h.

And the analgesic effect ([1]; carboxylic esters, systemic, also topical in a hydrogel)?
The analgesic effect was “effective”.

And the Bleeding time (150 mg/kg orally, 1 hour after administration)?
The Bleeding time was 88 ± 7 s.

What about the “prolongation of the bleeding time” value (treated mice) of the same molecule?
Its value is “no prolongation of the bleeding time”.

What about the “inhibition of growth of AGS xenografts” value [9] of the same molecule?
The value was 28%.

With `CCOP(=O)(OCC)OCC(CNC(=O)C(C)c1ccc(CC(C)C)cc1)OP(=O)(OCC)OCC` (stereo not shown) [Compound 4, Phospho-Ibuprofen Gylcerol Amide] as the molecule, how does the pIC50 [10] read?
The pIC50 was 4.06.

What about the “fold-increase of annexinV (+) cells” value (U87 glioblastoma cells) of the same molecule?
The value was 1.8 fold.

And the MTD at 12 days (in vivo; nude, ip)?
Its MTD at 12 days is 20 mg/kg/day.

And the MTD at 1 week (in vivo; wt (wild type), po)?
Its MTD at 1 week is greater than 600 mg/kg/day.

And the Reduction (U87)?
Its Reduction is 52%.

With “phospho-aspirin glycerol amide [Compound 194]” as the molecule, how does the “Latency, sec Mean ± SEM” value ([1]; rat, in vivo, ip, 150 mg/kg) read?
Its value is 19.92 ± 0.78 s.

What about the Reduction (HCT116) of the same molecule?
The Reduction was 18%.

What about the Reduction (MCF7; 120 mg/kg/d × 29 d, po, prevention) of the same molecule?
Its Reduction is 55%.

And the Reduction (MCF7; 500 mg/kg/d × 12 d, ip, treatment)?
Its Reduction is 80-100%.

What about the Reduction [11] of the same molecule?
Its Reduction is 30-48%.
